Results on 17 molecules are retold here after patent publication US8513251B2, “Pyridazinone compounds” (Takeda Pharmaceutical Company Limited, priority 2009, dated 2013).

One data set deals with T1, Human PDE10A enzyme (Homo sapiens, UniProt Q9Y233).
T1 construct: Human PDE10A enzyme was generated from Sf9 or COS-7 cells transfected with the full-length gene; His-tag; made in house; host or cells: Sf9 or COS-7 cells
Description: PDE enzyme inhibition, SPA (Scintillation Proximity Assay). The format is biochemical. The conditions noted are these: for inhibition at 1 µM: compound at 1 μM, read-out: Percent inhibition (1 μM); for IC50: human PDE10A, [3H]cGMP substrate. As to the method: Human PDE10A enzyme was generated from Sf9 or COS-7 cells transfected with the full-length gene. Cloned enzyme was extracted from homogenized cell pellets. The extracted enzyme from Sf9 cells was partially purified using His-tag affinity column. The enzyme was stored at −70° C. until use. PDE activity was measured using a SPA (Scintillation Proximity Assay) (GE Healthcare). To evaluate the inhibitory activity, 10 μL of serial diluted compounds were incubated with 20 μL of PDE enzyme in assay buffer (50 mM HEPES-NaOH, 8.3 mM MgCl2, 1.7 mM EGTA, 0.1% BSA (pH 7.4)) for 30 min. at room temperature. Final concentration of DMSO in the assay was 1 percent as compounds were tested in duplicate in 96-well half-area plates (Corning). To start the reaction, 10 μL of substrate [3H] cGMP (25 or 50 nM; enclosed in SPA kits from GE Healthcare or purchased from PerkinElmer, respectively) was added for a final assay volume of 40 μL. After 60 min incubation at room temperature, yttrium SPA beads containing Zinc sulphate were added (20 μL at 6 mg/mL) to terminate the PDE reaction. After being settled for 60 min., assay plates were counted in a scintillation counter (PerkinElmer) to allow calculation of inhibition rate and IC50. Inhibition rate was calculated on the basis of 0% control wells with DMSO and 100% control wells without enzyme.
For orientation: Scintillation proximity formats need no separation of bound from free tracer.

For another data set, the system named is Male ICR mice. Nature of the data set: Improvement of MK-801-induced prepulse inhibition (PPI) deficits. Conditions: 82 dB prepulse; i.p. 30 min before testing; MK-801 0.3 mg/kg s.c. (FIG. 3). The format is in vivo. The source says:
Male ICR mice were supplied by CLEA Japan, Inc (Japan). After arrival to the vivarium, animals were allowed a minimum of 1 week for acclimation. They were housed under a 12:12-h light/dark cycle in a temperature- and humidity-controlled laboratory and allowed food and water ad libitum. The care and use of the animals and the experimental protocols used in this research were approved by the Experimental Animal Care and Use Committee of Takeda Pharmaceutical Company, Ltd (Osaka, Japan).
The compounds were suspended in 0.5% methylcellulose in saline or distilled water, and administered by intraperitoneally (i.p.) or orally (p.o.), respectively. Methamphetamine (Dainippon Sumitomo Pharma Co., Ltd.) and MK-801 (Sigma-Aldrich, St Louis, Mo.) were dissolved in saline, and administered subcutaneously (s.c.). […]
PPI is a measure of sensorimotor gating and is one of a few neuropsychological measures in which humans and rodents can be evaluated in a similar fashion (Psychopharmacology (Berl) 2001, vol. 156: 117-154). We evaluated whether compound could reverse PPI deficits induced by MK-801 using male ICR mice. […] Placement of mice inside the cylinders allowed the whole-body startle responses induced by the acoustic stimuli to be measured via the transduction of movement into analog signals by a piezoelectric unit attached to the platform. […]

[1] abbreviates: Table 1, compound at 0.1 μM as noted in cell, read-out: Percent inhibition (at 0.1 μM).

Like-named read-outs stand apart in the source and are kept apart here. A value given as a limit tells only on which side of the number the result lay.

Broadly, the inhibition is the change of the read-out against control, counted positive when it falls. What is called IC50 is the point on the concentration scale where inhibition reaches its midpoint. A lower IC50 goes with greater potency in that assay. By melting point is commonly meant the temperature of the solid-liquid transition.

T1 sequence (Q9Y233 267-1055): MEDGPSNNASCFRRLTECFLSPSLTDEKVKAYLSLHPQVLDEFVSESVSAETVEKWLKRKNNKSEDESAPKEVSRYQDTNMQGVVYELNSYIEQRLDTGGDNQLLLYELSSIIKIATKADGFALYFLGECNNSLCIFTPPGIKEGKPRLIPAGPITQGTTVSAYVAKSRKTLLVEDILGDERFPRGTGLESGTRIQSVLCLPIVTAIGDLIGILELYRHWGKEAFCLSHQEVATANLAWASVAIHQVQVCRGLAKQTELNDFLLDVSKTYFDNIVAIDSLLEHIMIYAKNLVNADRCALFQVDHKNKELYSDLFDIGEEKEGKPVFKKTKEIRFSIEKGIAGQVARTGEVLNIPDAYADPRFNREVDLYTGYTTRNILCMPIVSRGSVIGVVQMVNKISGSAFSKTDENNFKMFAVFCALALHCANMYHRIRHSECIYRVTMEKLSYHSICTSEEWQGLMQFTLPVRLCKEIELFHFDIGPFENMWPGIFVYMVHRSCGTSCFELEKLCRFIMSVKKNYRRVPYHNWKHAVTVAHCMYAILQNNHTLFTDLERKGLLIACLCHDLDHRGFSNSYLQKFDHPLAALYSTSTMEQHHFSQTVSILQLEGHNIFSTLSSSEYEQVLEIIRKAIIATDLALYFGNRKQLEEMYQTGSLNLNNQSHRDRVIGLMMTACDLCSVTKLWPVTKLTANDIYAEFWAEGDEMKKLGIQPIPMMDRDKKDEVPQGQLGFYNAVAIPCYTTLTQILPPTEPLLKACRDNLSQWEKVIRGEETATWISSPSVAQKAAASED

`O=c1ccn(-c2cccc(C(F)(F)F)c2)nc1-c1ccnn1-c1ccccc1` [Example 10, 3-(1-Phenyl-1H-pyrazol-5-yl)-1-[3-(trifluoromethyl)phenyl]pyridazin-4(1H)-one]: the melting point is 156 to 157 °C. Besides, at Human PDE10A enzyme (Table 1), the inhibition at 1 µM is 98% and the IC50 lay within 10 to 200 nM.

`COc1ccccc1-n1ccc(=O)c(-c2ccnn2-c2ccccc2)n1` [Example 13, 1-(2-Methoxyphenyl)-3-(1-phenyl-1H-pyrazol-5-yl)pyridazin-4(1H)-one] came in with a melting point of 153 to 154 °C. Besides, on Human PDE10A enzyme (Table 1), the inhibition at 1 µM stood at 96% and the IC50 is 10 to 200 nM.

Regarding `O=c1ccn(-c2cccc(F)c2)nc1-c1ccnn1-c1ccccc1` [Example 15, 1-(3-Fluorophenyl)-3-(1-phenyl-1H-pyrazol-5-yl)pyridazin-4(1H)-one], the melting point is 170 to 171 °C. On Human PDE10A enzyme (Table 1), the inhibition at 1 µM is 97% and the IC50 is 10 to 200 nM.

Consider `O=c1ccn(-c2ccccc2F)nc1-c1ccnn1-c1ccccc1` [Example 16, 1-(2-Fluorophenyl)-3-(1-phenyl-1H-pyrazol-5-yl)pyridazin-4(1H)-one], for which the melting point fell in the range of 124 to 125 °C. For the same molecule, at Human PDE10A enzyme (Table 1), the inhibition at 1 µM was determined as 97% and the IC50 lay within 10 to 200 nM.

As to `O=c1ccn(-c2ccc(F)cc2)nc1-c1ccnn1-c1ccccc1` [Example 17, 1-(4-Fluorophenyl)-3-(1-phenyl-1H-pyrazol-5-yl)pyridazin-4(1H)-one], the melting point lay in the range of 252 to 253 °C. For the same molecule, on Human PDE10A enzyme (Table 1), the inhibition at 1 µM was found to be 97% and the IC50 was in the range of 10 to 200 nM.

On to `O=c1ccn(-c2ccc(N3CCOCC3)cc2)nc1-c1ccnn1-c1ccccc1` [Example 23, 1-(4-Morpholin-4-ylphenyl)-3-(1-phenyl-1H-pyrazol-5-yl)pyridazin-4(1H)-one], for which the melting point fell in the range of 205 to 206 °C. In addition, at Human PDE10A enzyme (Table 1), the inhibition at 1 µM worked out at 102% and the IC50 was less than 10 nM.

For `O=c1ccn(-c2ccccc2OC(F)F)nc1-c1ccnn1-c1ccccc1` [Example 26, 1-[2-(Difluoromethoxy)phenyl]-3-(1-phenyl-1H-pyrazol-5-yl)pyridazin-4(1H)-one], the melting point was 123 to 124 °C. On Human PDE10A enzyme (Table 1), the inhibition at 1 µM turned out to be 97% and the IC50 is 10 to 200 nM.

Molecule `O=c1ccn(-c2cccnc2)nc1-c1ccnn1-c1ccccc1` [Example 30, 3-(1-Phenyl-1H-pyrazol-5-yl)-1-pyridin-3-ylpyridazin-4(1H)-one] returned a melting point of 176 to 177 °C. Besides, the inhibition at 0.1 µM at Human PDE10A enzyme (setting [1]) stood at 87%. The molecule further came in with a half-maximal inhibitory concentration (IC50) on Human PDE10A enzyme (Table 1) of 10 to 200 nM.

`O=c1ccn(-c2ccccc2Cl)nc1-c1ccnn1-c1ccccc1` [Example 32, 1-(2-Chlorophenyl)-3-(1-phenyl-1H-pyrazol-5-yl)pyridazin-4(1H)-one]: the melting point lay within 138 to 139 °C. Besides, on Human PDE10A enzyme (Table 1), the inhibition at 1 µM worked out at 89% and the IC50 was 10 to 200 nM.

`CS(=O)(=O)c1cccc(-n2ccc(=O)c(-c3ccnn3-c3ccccc3)n2)c1` [Example 36, 1-[3-(Methylsulfonyl)phenyl]-3-(1-phenyl-1H-pyrazol-5-yl)pyridazin-4(1H)-one] came in with a melting point of 199 to 200 °C. For the same molecule, at Human PDE10A enzyme (setting [1]), the inhibition at 0.1 µM turned out to be 90%. This molecule also had an IC50 on Human PDE10A enzyme (Table 1) of less than 10 nM.

For the molecule `O=c1ccn(-c2cccc(S(=O)(=O)c3nc4ccccc4[nH]3)c2)nc1-c1ccnn1-c1ccccc1` [Example 39, 1-[3-(1H-Benzimidazol-2-ylsulfonyl)phenyl]-3-(1-phenyl-1H-pyrazol-5-yl)pyridazin-4(1H)-one], the melting point was in the range of 160 to 161 °C. At Human PDE10A enzyme (Table 1), the inhibition at 1 µM was 98% and the IC50 was less than 10 nM.

In the case of `COc1cn(-c2ccccc2F)nc(-c2ccnn2-c2ccccc2)c1=O` [Example 52, 1-(2-Fluorophenyl)-5-methoxy-3-(1-phenyl-1H-pyrazol-5-yl)pyridazin-4(1H)-one], the melting point is 163 to 165 °C. For the same molecule, at Human PDE10A enzyme (Table 1), the inhibition at 1 µM stood at 99% and the IC50 was less than 10 nM.

`COc1cn(-c2cccc(C(F)(F)F)c2)nc(-c2ccnn2-c2ccccc2)c1=O` [Example 54, 5-Methoxy-3-(1-phenyl-1H-pyrazol-5-yl)-1-[3-(trifluoromethyl)phenyl]pyridazin-4(1H)-one] displayed a melting point of 139 to 141 °C. Also, at Human PDE10A enzyme (Table 1), the inhibition at 1 µM worked out at 100% and the IC50 is less than 10 nM.

For `COc1cn(-c2ccc(N3CCOCC3)cc2F)nc(-c2ccnn2-c2ccccc2)c1=O` [Example 57, 1-(2-Fluoro-4-morpholin-4-ylphenyl)-5-methoxy-3-(1-phenyl-1H-pyrazol-5-yl)pyridazin-4(1H)-one], the melting point fell in the range of 226 to 228 °C. Also, at Human PDE10A enzyme (Table 1), the inhibition at 1 µM was 101% and the IC50 is less than 10 nM.

Turning to `O=c1c(OC(F)F)cn(-c2ccccc2F)nc1-c1ccnn1-c1ccccc1` [Example 64, 5-(Difluoromethoxy)-1-(2-fluorophenyl)-3-(1-phenyl-1H-pyrazol-5-yl)pyridazin-4(1H)-one], the melting point was in the range of 109 to 114 °C. Also, at Human PDE10A enzyme (Table 1), the inhibition at 1 µM was determined as 94% and the half-inhibitory concentration (IC50) fell in the range of 10 to 200 nM.

Regarding `COc1cn(-c2ccc(N3CCC3=O)cc2F)nc(-c2ccnn2-c2ccccc2)c1=O` [Example 107, 1-[2-Fluoro-4-(2-oxoazetidin-1-yl)phenyl]-5-methoxy-3-(1-phenyl-1H-pyrazol-5-yl)pyridazin-4(1H)-one], the melting point lay within 189 to 194 °C. Also, at Human PDE10A enzyme (Table 2, compound at 0.1 μM, read-out: Percent inhibition (0.1 μM)), the inhibition at 0.1 µM came to 104%. This molecule also had an IC50 on Human PDE10A enzyme (Table 2) of less than 10 nM.

On to `Cc1nc2n(c(=O)c1CCN1CCC(c3noc4cc(F)ccc34)CC1)CCCC2` [Risperidone], for which the “MK-801-induced PPI deficits” value in the data set with Male ICR mice is listed as “significantly reversed”.
